Experimental data as given in paper PMC6272134, “Bioavailability Enhancement of Paclitaxel via a Novel Oral Drug Delivery System: Paclitaxel-Loaded Glycyrrhizic Acid Micelles” (Molecules, 2015).
≈ marks a conversion by molar mass, not a printed value. Read-outs that look alike come from different tables or passages of the source.

Assays:
[1] = set-up: method as in PMID 7939764; details: cited from earlier work
[2] = Phase-solubility test of PTX in GA / ethanol-water solutions; type: physicochemical
Description: The phase-solubility test was performed with a previously reported method. An excess quantity of PTX was taken into clean and dry vials containing 1 mL of various concentrations of GA solutions ([…]). […] Ultimately, the samples were filtered through 0.45 μm filters and the concentrations of PTX were detected by high performance liquid chromatography (HPLC; LC-20A, Shimadzu, Japan) (see Section 3.3.6.). All tests were repeated at least three times.

[3] = set-up: method as in PMID 11879753; details: cited from earlier work
[4] = set-up: method as in PMID 19929808; details: cited from earlier work
P-gp = system: P-gp; set-up: method as in PMID 16904803; details: in vitro study; cited from earlier work
CYP2E1 = system: CYP2E1; set-up: method as in PMID 12584850; details: rat liver microsomes; cited from earlier work
CYP1A1 = system: CYP1A1; set-up: method as in PMID 12584850; details: rat liver microsomes; cited from earlier work
cell membranes = system: cell membranes; set-up: method as in PMID 24870200; details: cited from earlier work
CYP3A = system: CYP3A; set-up: method as in PMID 12584850; details: rat liver microsomes; cited from earlier work

CC(=O)O[C@H]1C(=O)[C@@]2(C)[C@H]([C@H](OC(=O)c3ccccc3)[C@]3(O)C[C@H](OC(=O)[C@H](O)[C@@H](NC(=O)c4ccccc4)c4ccccc4)C(C)=C1C3(C)C)[C@]1(OC(C)=O)CO[C@@H]1C[C@@H]2O [PTX, Paclitaxel]
oral bioavailability [1]: < 2%
solubility at 48 h ([2]; 10 mM GA solution in water, aqueous with cosolvent or surfactant or cyclodextrin, thermodynamic from solid, water, in the presence of 10 mM GA, 25 °C, read-out: solubility of PTX): 124 µg/mL
solubility at 48 h ([2]; 7.5% ethanol in water with 10 mM GA, 25 °C, aqueous with cosolvent or surfactant or cyclodextrin, thermodynamic from solid, optimal ethanol percentage (7.5%) with GA (10 mM), read-out: PTX solubility): 823 ± 14.4 µg/mL (≈ 964 µM)
solubility increase ([2]; 7.5% ethanol with GA vs solubility of PTX in water): more than 1,000 fold
solubility at 48 h ([2]; ethanol-water mixtures without GA, 0%, 5%, 7.5%, 10% and 25% ethanol in water, without GA, read-out: solubility of PTX in different percentages of ethanol): ≤ 30 µg/mL
solubility at 48 h ([2]; water, absence of GA, 25 °C, read-out: solubility of PTX in water): ~0.67 µg/mL (≈ 0.785 µM)
aqueous solubility [3]: < 1 µg/mL

CC1(C)[C@@H](O[C@H]2O[C@H](C(=O)O)[C@@H](O)[C@H](O)[C@H]2O[C@@H]2O[C@H](C(=O)O)[C@@H](O)[C@H](O)[C@H]2O)CC[C@]2(C)[C@H]3C(=O)C=C4[C@@H]5C[C@@](C)(C(=O)O)CC[C@]5(C)CC[C@@]4(C)[C@]3(C)CC[C@@H]12 [GA, Glycyrrhizic acid]
critical micelle concentration [4]: 10^−3 M
inhibition of the function of P-gp (P-gp): inhibited the function of P-gp
inhibitor of CYP2E1 (CYP2E1): inhibitor
inhibitor of CYP1A1 (CYP1A1): inhibitor
increase of the permeability of cell membranes (cell membranes): about 60%
inhibitor of CYP3A (CYP3A): inhibitor
